The values that follow come from US10851064B2, “ACSS2 inhibitors and methods of use thereof” (METABOMED LTD., priority 2017, dated 2020).

For assay [1], the target named is T1, ACSS2 (Homo sapiens, UniProt Q9NR19). Kind of assay: cell-based.
Protocol: Testing the inhibitory effect of compounds on the cellular activity of ACSS2 was done by tracing the incorporation of ^13C from ^13C-acetate into fatty-acids in MDA-MB-468 cells under hypoxic conditions of 1% 02. The assay was done for 5 hours in DMEM with 5.5 mM glucose, 1 mM sodium Pyruvate, 0.65 mM Glutamine, 3.5 ug/ml Biotin, 1% dialyzed serum, 0.5 mM 13C-acetate and with different concentrations of the inhibitors. At the end of the incubation, the cells were washed with cold PBS, harvested into glass tubes and undergo saponification. The level of ^13C incorporation into Palmitate was done by LC-MS analysis and the level of inhibition was calculated with PRISM software.
Assay [2] has as its target T1, ACSS2. Description: biochemical.
Protocol: ACSS2 Cell-Free Activity Assay (Cell-Free IC50)
The assay is based on a coupling reaction with Pyrophosphatase: ACSS2 is converting ATP+CoA+Acetate=>AMP+pyrophosphate+Acetyl-CoA (Ac-CoA). Pyrophosphatase converts pyrophosphate, a product of the ACSS2 reaction, to phosphate which can be detected by measuring the absorbance at 620 nm after incubation with the Biomol green reagent (Enzo life Science, BML-AK111).
Cell-free IC50 Determination:
At the end of the reaction, Biomol Green was added for 30 minutes at RT and the activity was measured by reading the absorbance at 620 nm.
Assay [3] addresses T1, ACSS2. Description: cell-based. The source holds these as a separate data set.
Protocol: ACSS2 Cellular Activity Assay (Cellular IC50)
The cellular activity of ACSS2 was based on tracing the incorporation of carbons from ^13C-Acetate into fatty-acids.
BT474/MDA-MB-468 cells growing in DMEM+25 mM D-glucose+1 mM sodium pyruvate+10% FBS+2 mM glutamine were plated in 12-well plates at 0.4×10^6 cells/well. The cells were then incubated at CO2 incubator for 24 hrs at hypoxic conditions (1% O2) before treated with compounds. At day 2, the medium was replaced to DMEM medium containing 15 mM Glucose, 1 mM Pyruvate, 0.65 mM Glutamine, 1% Dialyzed serum, 3.5 ug/ml Biotin, 0.2 mM ^13C-Acetate and various concentrations of the compounds. The cells were incubated for 5 hours at CO2 incubator in hypoxic conditions (1% O2). At the end of the 5 hours' incubation, the cells were washed twice with cold PBS, harvested in 1 ml PBS and transfer into V-shaped HPLC glass vials and centrifuge for 10 min at 600 g at 4 C. The supernatant was removed, and the cells' pellets were stored at −80° C. until taken for saponification.
The cells pellets were resuspended with 0.5 ml of the 90% Methanol, 10% H2O, 0.3M NaOH mixture and incubated at 80° C. for 60 min. Following the incubation, 50 μl formic acid and 0.4 ml hexane were added and the mixture was vortexed for 2 minutes. The vials were left few minutes for phases separation and then 200 μl of the top hexane phase extracted to a new glass vial. The hexane was dried under nitrogen and reconstituted in 100 μl of Methanol:Acetonitrile 5:3 mixture. The solution transferred to Eppendorf tubes, spun down at 17000 G for 20 min and transferred to LC-MS vials.
The analysis was performed with Thermo Q Exactive mass spectrometer with HESI probe and Dionex Ultimate 3000 UHPLC system. The separations were performed on Phenomenex Kintex 2.6u XB-C18 100A 150×2.10 mm column by injecting 5 ul of each sample. The chromatography started with a linear gradient from 85% to 100% of organic solvent (Methanol:Acetonitrile 1:1) versus 10 mM Ammonium Acetate buffer pH 4.7 for 3.5 minutes, followed by 4.5 minutes of isocratic 100% organic solvent and then 3 minutes of isocratic initial conditions, at a flow rate of 0.3 ul/min. The MS source conditions that were used: capillary temperature 325° C., sheath flow 25, aux flow 15, spray voltage 3.8 kV, aux temperature 300° C. The data collected from Negative ion mode at resolution of 70000 at Full-MS mode in 75-1000 m/z range.
The analysis of ^13C acetate incorporation into fatty acids (palmitate, myristate and stearate) performed on TraceFinder 3.2.512.0. The negative control areas and ^13C isotopic theoretical natural abundance were subtracted from the samples areas. Total ^13C incorporation for each fatty-acid (palmitate, myristate and stearate) was calculated and presented as percentage of the total amount.

In general, pIC50 refers to −log10 of the IC50, conventionally taken in molar units.

Structures are written as SMILES. pIC50: −log10 of the molar value. Where “and” joins values, the source holds several entries; their conditions need not be identical. Equal entries are not always repeated. Bounds are passed on as bounds.

T1 sequence (Q9NR19 whole entry): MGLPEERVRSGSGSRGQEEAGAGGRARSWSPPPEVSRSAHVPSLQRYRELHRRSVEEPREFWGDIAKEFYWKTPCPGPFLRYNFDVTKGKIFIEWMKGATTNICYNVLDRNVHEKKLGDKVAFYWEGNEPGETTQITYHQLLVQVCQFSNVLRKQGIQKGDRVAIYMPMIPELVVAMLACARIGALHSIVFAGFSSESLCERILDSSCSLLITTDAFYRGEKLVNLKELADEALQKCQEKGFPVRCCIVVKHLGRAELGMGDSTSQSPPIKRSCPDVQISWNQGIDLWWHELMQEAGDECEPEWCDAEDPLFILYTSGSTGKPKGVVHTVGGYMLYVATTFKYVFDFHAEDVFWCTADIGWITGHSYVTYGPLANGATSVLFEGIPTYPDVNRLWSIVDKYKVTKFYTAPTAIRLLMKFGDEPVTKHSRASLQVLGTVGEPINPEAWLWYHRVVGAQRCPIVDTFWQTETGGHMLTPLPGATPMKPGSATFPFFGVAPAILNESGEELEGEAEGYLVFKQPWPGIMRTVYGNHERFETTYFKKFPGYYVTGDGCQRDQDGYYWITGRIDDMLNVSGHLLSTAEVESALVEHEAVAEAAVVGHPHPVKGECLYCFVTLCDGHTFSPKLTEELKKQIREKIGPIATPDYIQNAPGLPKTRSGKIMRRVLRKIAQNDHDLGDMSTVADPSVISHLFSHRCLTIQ

Regarding `CC1=NN(c2cccc(-c3nccn3C)c2)C(=O)C1C(=O)Nc1cccc(C(C)(F)F)c1` (centres unmarked) [compound 289], the results for the pIC50 in assay [1] and in assay [2] were 7.30 to 9.30 and 8.22 to 11.00, respectively.
Consider `CC1=NN(c2cccc(C(=O)OC(C)C)c2)C(=O)C1C(=O)Nc1cccc(-c2ncc[nH]2)c1` (centres unmarked) [compound 235], for which the pIC50 in assay [1] was less than 7.00; in assay [2] it was 7.00 to 8.22.
On to `COc1ccc(N2N=C(C)C(C(=O)Nc3cccc(C(C)(F)F)c3)C2=O)cn1` (centres unmarked) [compound 242], for which the pIC50 was 7.30 to 9.30 in assay [1] and 8.22 to 11.00 in assay [2].
In the case of `COc1ccc(N2N=C(C)C(C(=O)Nc3cccc(-c4ncc[nH]4)c3)C2=O)cn1` (centres unmarked) [compound 244], the results for the pIC50 in assay [1] and in assay [2] were less than 7.00 and 7.00 to 8.22, respectively.
`CC1=NN(c2ccc(OC(F)(F)F)c(-c3ncco3)c2)C(=O)C1C(=O)Nc1cccc(C(C)(F)F)c1` (centres unmarked) [compound 291]: the pIC50 in assay [1] is 7.30 to 9.30; in assay [2] it was 8.22 to 11.00.
On to `COC(=O)c1cccc(N2N=C(C)C(C(=O)Nc3cccc(C(C)(F)F)c3)C2=O)c1` (centres unmarked) [compound 261], for which the values for the pIC50 in assay [1] and in assay [2] were 7.30 to 9.30 and 8.22 to 11.00, respectively.
The matching figures for `COc1cccc(N2N=C(C)C(C(=O)Nc3cccc(-c4ncco4)c3)C2=O)c1` (centres unmarked) [compound 251]: 7.00 to 7.30 and 7.00 to 8.22.
On to `COc1ccc(N2N=C(C)C(C(=O)Nc3cccc(C(C)(F)F)c3)C2=O)cc1-c1ncco1` (centres unmarked) [compound 301], for which the pIC50 in assay [1] is 7.30 to 9.30; in assay [2] it was 8.22 to 11.00.
Regarding `COc1cccc(N2N=C(C)C(C(=O)Nc3cccc(-c4cnccn4)c3)C2=O)c1` (centres unmarked) [compound 249], the pIC50 in assay [1] was 7.30 to 9.30; in assay [2], 8.22 to 11.00.
In the case of `CC1=NN(c2cccc(-c3ncco3)c2)C(=O)C1C(=O)Nc1cccc(C(C)(F)F)c1` (centres unmarked) [compound 230], the pIC50 in assay [1] was 7.30 to 9.30; in assay [2], 8.22 to 11.00.
In the case of `[2H]C([2H])([2H])Oc1ccc(N2N=C(C)C(C(=O)Nc3cccc(C(C)(F)F)c3)C2=O)cc1` (centres unmarked) [compound 286], the negative logarithm of the IC50 (pIC50) in assay [1] is 7.30 to 9.30; in assay [2] it was 8.22 to 11.00.
Consider `CC1=NN(c2cccc(-c3ncco3)c2)C(=O)C1C(=O)Nc1cccc(-c2ccco2)c1` (centres unmarked) [compound 228], for which the figures for the pIC50 in assay [1] and in assay [2] were 7.30 to 9.30 and 8.22 to 11.00, respectively.
In the case of `COc1ccc(N2N=C(C)C(C(=O)Nc3cccc(-c4ccco4)c3)C2=O)cn1` (centres unmarked) [compound 246], the pIC50 in assay [1] was 7.30 to 9.30; in assay [2], 8.22 to 11.00.
Take `COc1ccc(N2N=C(C)C(C(=O)Nc3cccc(-c4cnccn4)c3)C2=O)cc1` (centres unmarked) [compound 241]: the values for the pIC50 in assay [1] and in assay [2] were 7.00 to 7.30 and 8.22 to 11.00, respectively.
For `COc1ccc(N2N=C(C)C(C(=O)Nc3cccc(C(C)(F)F)c3)C2=O)nc1` (centres unmarked) [compound 304], the pIC50 is 7.30 to 9.30 in assay [1] and 8.22 to 11.00 in assay [2].
On to `CCCC(=O)c1cccc(NC(=O)C2C(=O)N(c3ccccc3)N=C2C)c1` (centres unmarked) [compound 114, N-(3-butyrylphenyl)-3-methyl-5-oxo-1-phenyl-4,5-dihydro-1H-pyrazole-4-carboxamide], for which the pIC50 was ≤ 6.00 and 6.00 to 7.00 in assay [3]; 7.00 to 8.22 in assay [2].
Turning to `CCc1cccc(NC(=O)C2C(=O)N(c3ccccc3)N=C2C)c1` (centres unmarked) [compound 184, N-(3-ethylphenyl)-3-methyl-5-oxo-1-phenyl-4,5-dihydro-1H-pyrazole-4-carboxamide], the pIC50 in assay [3] is 6.00 to 7.00; in assay [2], 7.00 to 8.22.
With `CC1=NN(c2cccc(-c3ncco3)c2)C(=O)C1C(=O)Nc1cccc(-c2cnccn2)c1` (centres unmarked) [compound 227], the pIC50 in assay [1] was 7.00 to 7.30; in assay [2] it was 8.22 to 11.00.
On to `COc1cccc(N2N=C(C)C(C(=O)Nc3cccc(C(C)(F)F)c3)C2=O)c1` (centres unmarked) [compound 250], for which the values for the pIC50 in assay [1] and in assay [2] were 7.30 to 9.30 and 8.22 to 11.00, respectively.
As to `COC(=O)c1cccc(N2N=C(C)C(C(=O)Nc3cccc(-c4ccco4)c3)C2=O)c1` (centres unmarked) [compound 269], the pIC50 is 7.30 to 9.30 in assay [1] and 8.22 to 11.00 in assay [2].
For the compound `COc1ccc(N2N=C(C)C(C(=O)Nc3cccc(C(C)(F)F)c3)C2=O)cc1C` (centres unmarked) [compound 303], the values for the pIC50 in assay [1] and in assay [2] were 7.30 to 9.30 and 8.22 to 11.00, respectively.
Take `CC1=NN(c2cccc(C(=O)O)c2)C(=O)C1C(=O)Nc1cccc(C(C)(F)F)c1` (centres unmarked) [compound 258]: the figures for the pIC50 in assay [1] and in assay [2] were less than 7.00 and 8.22 to 11.00, respectively.
`CC1=NN(c2cccc(-c3ncc(C)o3)c2)C(=O)C1C(=O)Nc1cccc(C(C)(F)F)c1` (centres unmarked) [compound 229]: the pIC50 in assay [1] is less than 7.00; in assay [2], 8.22 to 11.00.
Regarding `CC1=NN(c2ccc(OC(F)(F)F)c(-c3ncco3)c2)C(=O)C1C(=O)Nc1cccc(-c2ccco2)c1` (centres unmarked) [compound 292], the pIC50 was 7.30 to 9.30 in assay [1] and 8.22 to 11.00 in assay [2].
For `CC(=O)Cc1cccc(NC(=O)C2C(=O)N(c3ccccc3)N=C2C)c1` (centres unmarked) [compound 145, 3-methyl-5-oxo-N-(3-(2-oxopropyl)phenyl)-1-phenyl-4,5-dihydro-1H-pyrazole-4-carboxamide] the same measures were less than 7.00 and 8.22 to 11.00.
As for `COc1ccc(N2N=C(C)C(C(=O)Nc3cccc(-c4cnccn4)c3)C2=O)cn1` (centres unmarked) [compound 243], the values for the pIC50 in assay [1] and in assay [2] were less than 7.00 and 8.22 to 11.00, respectively.
With `COC(=O)c1cccc(N2N=C(C)C(C(=O)Nc3cccc(-c4cnccn4)c3)C2=O)c1` (centres unmarked) [compound 164], the pIC50 in assay [1] was less than 7.00; in assay [2] it was 8.22 to 11.00.
With `CC1=NN(c2cccc(-c3ncco3)c2)C(=O)C1C(=O)Nc1cccc(-c2ncc[nH]2)c1` (centres unmarked) [compound 279], the pIC50 is less than 7.00 in assay [1] and 7.00 to 8.22 in assay [2].
Consider `COc1ccc(N2N=C(C)C(C(=O)Nc3cccc(-c4ncc[nH]4)c3)C2=O)cc1` (centres unmarked) [compound 255], for which the values for the pIC50 in assay [1] and in assay [2] were less than 7.00 and 7.00 to 8.22, respectively.
`COc1cccc(N2N=C(C)C(C(=O)Nc3cccc(-c4ccco4)c3)C2=O)c1` (centres unmarked) [compound 247]: the pIC50 in assay [1] is 7.30 to 9.30; in assay [2] it was 8.22 to 11.00.
Consider `COc1ccc(N2N=C(C)C(C(=O)Nc3cccc(C(C)(F)F)c3)C2=O)cc1OC` (centres unmarked) [compound 287], for which the pIC50 was 7.30 to 9.30 in assay [1] and 8.22 to 11.00 in assay [2].
Turning to `COC(=O)c1cccc(N2N=C(C)C(C(=O)Nc3cccc(-c4ncc[nH]4)c3)C2=O)c1` (centres unmarked) [compound 167], the figures for the pIC50 in assay [1] and in assay [2] were less than 7.00 and 8.22 to 11.00, respectively.
The matching figures for `COc1cccc(N2N=C(C)C(C(=O)Nc3cccc(-c4ncc[nH]4)c3)C2=O)c1` (centres unmarked) [compound 248]: less than 7.00 and 8.22 to 11.00.
The matching figures for `COC(=O)c1cccc(N2N=C(C)C(C(=O)Nc3cccc(-c4ncco4)c3)C2=O)c1` (centres unmarked) [compound 259]: less than 7.00 and 7.00 to 8.22.
On to `CC1=NN(c2cccc(S(=O)(=O)N(C)C)c2)C(=O)C1C(=O)Nc1cccc(-c2ccco2)c1` (centres unmarked) [compound 263], for which the values for the pIC50 in assay [1] and in assay [2] were 7.30 to 9.30 and 7.00 to 8.22, respectively.
For `COc1ccc(N2N=C(C)C(C(=O)Nc3cccc(C(C)(F)F)c3)C2=O)cc1-c1nccn1C` (centres unmarked) [compound 300] the same measures were 7.30 to 9.30 and 8.22 to 11.00.
Take `CC1=NN(c2cccc(C(F)(F)F)c2)C(=O)C1C(=O)Nc1cccc(-c2ncc[nH]2)c1` (centres unmarked) [compound 149, N-(3-(1H-imidazol-2-yl)phenyl)-3-methyl-5-oxo-1-(3-(trifluoromethyl)phenyl)-4,5-dihydro-1H-pyrazole-4-carboxamide]: the pIC50 in assay [1] was less than 7.00; in assay [2], 7.00 to 8.22.
